According to article PMC4707132 (Journal of medicinal chemistry, 2015):

Columns and labels:
Mcl-1 [1] = biological target: T1, Mcl-1 (Homo sapiens, UniProt Q07820); experiment: fluorescence polarization competition assay; format: binding
in vitro cellular assay = format: cell-based
Mcl-1 [2] = biological target: T1, Mcl-1; experiment: bio-layer interferometry; format: binding; conditions: label-free BLI
Mcl-1 [3] = biological target: T1, Mcl-1; experiment: surface plasmon resonance; format: binding
Mcl-1 [4] = biological target: T1, Mcl-1; experiment: HSQC chemical shift mapping; format: binding

T1 sequence (Q07820 whole entry): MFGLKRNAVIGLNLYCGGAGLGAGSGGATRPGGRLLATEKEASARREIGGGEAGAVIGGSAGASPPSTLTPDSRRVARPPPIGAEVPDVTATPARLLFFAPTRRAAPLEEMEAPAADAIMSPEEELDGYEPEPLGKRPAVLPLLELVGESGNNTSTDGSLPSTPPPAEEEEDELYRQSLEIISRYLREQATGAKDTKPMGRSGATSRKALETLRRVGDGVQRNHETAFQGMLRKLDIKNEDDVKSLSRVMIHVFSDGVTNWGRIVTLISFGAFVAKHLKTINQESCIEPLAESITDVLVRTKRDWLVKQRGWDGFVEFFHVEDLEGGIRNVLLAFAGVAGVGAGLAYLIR

SMILES	potency relative to M0 (Mcl-1 [1])	direct binding to Mcl-1 (Mcl-1 [2])	also measured
COc1cc(/C=C/C(=O)c2ccc(OC)c(OC)c2OC)cc(Cl)c1O [Compound D1]	–	–	potency of Mcl-1 inhibition relative to M0 (Mcl-1 [1]): about 7 fold
COc1ccc(C(=O)/C=C/c2cc(F)c(O)c(Cl)c2)c(OC)c1OC [Compound D2]	–	–	potency of Mcl-1 inhibition relative to M0 (Mcl-1 [1]): about 7 fold; biological effect in cells (in vitro cellular assay): does not exert the desired biological effect
COc1ccc(C(=O)/C=C/c2cc(F)c(O)c(Cl)c2)cc1 [Compound D3]	potency exceeding that of M0	–	activity relative to D1 (Mcl-1 [1]): reduced activity
COc1ccc(C(=O)/C=C/c2cc(Cl)c(O)c(OC)c2)cc1 [Compound D4]	potency exceeding that of M0	–	–
COc1ccc(C(=O)/C=C/c2ccc(O)c(F)c2)c(OC)c1OC [Compound D5]	very similar inhibition constant as M0	–	activity relative to D1 (Mcl-1 [1]): reduced activity
COc1cc(C(=O)/C=C/c2ccc(O)cc2)c(O)c(OC)c1OC [Compound D7]	less potent than M0	–	–
COc1ccc(/C=C/C(=O)c2cc(OC)c(OC)c(OC)c2O)cc1 [Compound D12]	less potent than M0	–	–
COc1cc(C(=O)/C=C/c2ccc(C(F)(F)F)cc2)c(O)c(OC)c1OC [Compound D13]	less potent than M0	–	–
COc1cc(C(=O)/C=C/c2ccc([N+](=O)[O-])cc2)c(O)c(OC)c1OC [Compound D14]	less potent than M0	–	–
COc1cc(O)c(C(=O)/C=C/c2ccc(O)c(OC)c2)c(OC)c1 [Compound M0, 2’,4-dihydroxy-3,4’,6’-trimethoxychalcone]	–	confirmed the activity	SPR response (Mcl-1 [3]): did not exhibit super-stoichiometric behavior; HSQC spectrum (Mcl-1 [4]): small number of distinct chemical shift differences
Cc1c(/C=N/N2C=Nc3c([nH]c4ccccc34)C2)c(=O)oc2c3c4c(cc12)CCCN4CCC3 [Compound M1]	–	confirmed the activity	Ki (Mcl-1 [1]): 1.2 µM
C[C@@]12CC[C@@H]3[C@H](CCC4=CC(=O)CC[C@H]43)[C@H]1CC[C@H]2OC1(O)C(=O)c2ccccc2C1=O [Compound M5]	–	confirmed the activity	–
c1cc2c(cc1[C@H]1OC[C@H]3[C@H]1CO[C@H]3c1ccc3c(c1)OCO3)OCO2 [Compound M7]	–	confirmed the activity	–
